In patent publication US20220400669A1, “COMPOUNDS AND METHODS FOR PROMOTING PLANT GROWTH” (King Abdullah University of Science and Technology, priority 2019, published 2022):
Entries after “also recorded” stand apart in the source; their conditions may differ. Values belong to the compound of their own block, whether it stands above or below them.

Columns and labels:
Type in all cases: in vivo
[1] = tested on: strigolactones (4-deoxyorobanchol, orobanchol) release; experiment: LC-MS/MS quantification of SLs in rice root exudates; settings: 5 μM; for SL level of the root exudate: wild-type rice seedlings, Pi-starvation, 6 h, compared with Zaxinone (FIGS. 19, 20A-20B); for SL level / release in root exudates (4-DO, Oro): Pi starvation, in comparison with MZ1 and mock control (FIGS. 21A-21C)
Description: For SL analysis, one-week-old seedlings were transferred into 50 ml falcon tubes (two seedlings per tube), containing half-strength Hoagland nutrient solution with K2HPO4.2H2O (+Pi), and grown in the biochamber for one week. Rice seedlings were then subjected to phosphate deficiency (−Pi) for another one week. On the day of root exudates collection, rice seedlings were first treated with 5 μM Zaxinone, or MZ compounds for 6 h, and then root exudates and root tissues were collected from each tube for LC-MS/MS analysis and Striga bioassays.
For the quantification of SLs in rice root exudates, 50 ml of root exudates spiked with 0.672 ng of D6-5-deoxystrigol, was brought on a 500 mg/3 ml fast SPE C18 column preconditioned with 6 ml of methanol and 3 ml of water. After washing with 3 ml of water, SLs were eluted with 5 ml of acetone. The 4-deoxyorobanchol fraction (acetone-water solution) was concentrated to SL aqueous solution (˜500 μl), followed by the extraction with 1 ml of ethyl acetate. 750 μl of SLs enriched organic phase was then transferred to 1.5 ml tube and evaporated to dryness under vacuum. The dried extract was dissolved in 100 μl of acetonitrile:water (25:75, v:v) and filtered through a 0.22 µm filter for LC-MS/MS analysis.

[2] = tested on: SL biosynthesis genes D27, CCD7, CCD8, CO; experiment: qRT-PCR transcript analysis of SL biosynthesis genes in rice roots; settings: 5 μM; for transcript levels of SL biosynthesis enzymes D27, CCD7, CCD8 and CO: wild-type rice seedlings, Pi-starvation, 6 h
Description: For transcript analysis, one-week-old seedlings were grown hydroponically in half-strength modified Hoagland nutrient solution with K2HPO4.2H2O (+Pi) and without K2HPO4.2H2O (+Pi) (−Pi) for 7 days. Seedlings were further treated with zaxinone or MZ compounds for 6 h, and tissues were collected.
Roots of rice seedling were ground and homogenized in liquid nitrogen, and total RNA was isolated using a Direct-zol RNA Miniprep Plus Kit following the manufacturer's instructions (ZYMO RESEARCH; USA). cDNA was synthesized from 1 μg of total RNA using iScript cDNA Synthesis Kit (BIO-RAD Laboratories, Inc, 2000 Alfred Nobel Drive, Hercules, Calif.; USA) according to the instructions in the user manual. The gene expression level was detected by real-time quantitative RT-PCR (qRT-PCR) which was performed using SYBR Green Master Mix (Applied Biosystems; www.lifetechnologies.com) in a CFX384 Touch™ Real-Time PCR Detection System (BIO-RAD Laboratories, Inc, 2000 Alfred Nobel Drive, Hercules, Calif.; USA). The gene expression level was calculated by normalization of a housekeeping gene in rice, Ubiquitin (OsUBQ) (Table 1). The relative gene expression level was calculated according to 2-^ΔΔCT method.

[3] = LC-MS analysis of rice plants fed with the mimics; settings: data not shown; for conversion into the methoxy mimic (MZ3 or MZ5) in rice plants: rice plants fed with the mimic
[4] = tested on: Striga hermonthica seeds; experiment: Striga hermonthica seed germination bioassay with root exudates of treated rice seedlings; settings: for decrease of Striga seed germination rate: exudates of rice seedlings treated with 5 μM compound, Pi starvation (FIG. 2)
Description: For SL analysis, one-week-old seedlings were transferred into 50 ml falcon tubes (two seedlings per tube), containing half-strength Hoagland nutrient solution with K2HPO4.2H2O (+Pi), and grown in the biochamber for one week. Rice seedlings were then subjected to phosphate deficiency (−Pi) for another one week. On the day of root exudates collection, rice seedlings were first treated with 5 μM Zaxinone, or MZ compounds for 6 h, and then root exudates and root tissues were collected from each tube for LC-MS/MS analysis and Striga bioassays. Striga hermonthica seed germination bioassays were conducted by following the procedure as described previously. About 50-100 sterilized Striga seeds were spread on a glass fiber filter paper disc. Then 12 discs with Striga seeds were put on a sterilized filter paper, moistened with 3 ml sterilized water in a 90 mm petri plate. The plates were sealed with parafilm and cover with aluminum foil. All the plates were kept at 30° C. for 10 days for pre-conditioning. On 11th day, six dry discs with pre-conditioned seeds were selected and put in a 90 mm petri-dish. A filter paper ring moistened with 0.9 ml sterile MilliQ water was placed in the plate. The root exudates collected from Zaxinone or MZ compounds treated rice seedlings was applied at 50 μl on each six disc. Sterile MilliQ water and standard SL analog GR24 (2.5 μM) were included as a negative and positive control, respectively. After application, Striga seeds were incubated in dark at 30° C. for 24 hours. Germination (seeds with radicle emerging through seed coat) was scored under a binocular microscope, and germination rate (%) was calculated.

[5] = tested on: Gigaspora margarita spores; experiment: Gigaspora margarita spores germination
Description: Spores were sterilized in a solution of Streptomycine sulphate (0.03% W/V) and Chloramine T (3% W/V) and germinated in 200 μl of MZ3 and MZ5 at 5 μM or 50 nM, GR24 10 nM or a solution of Water/Acetone (12.5 μl acetone in 25 ml water). For each treatments 96 sterilized spores were placed individually in the wells of a multi-well plate and treated with freshly prepared solutions at the beginning of the experiment and after 3 days. Spores were germinated in the dark at 30° C. and the germination rate was evaluated after 3 days and 7 days.

[6] = tested on: wild-type rice plants; experiment: Rice phenotypes in soil (rhizotron system); settings: 5 μM
Description: For testing MZ3 and MZ5 on rice phenotypes in the rhizotron system (48 cm×24 cm×5 cm), three-day-old seedlings were grown in soil with half-strength modified Hoagland nutrient solution containing 0.4 mM K2HPO4.2H2O (+Pi) and 5 μM zaxinone for two weeks. The solution was changed every other day, adding the chemical at each renewal. To increase the compounds stability, 1 μl/ml emulsifier (cyclohexanone+Atlas […] kindly provided by a person […] of CRODA, Gouda; The Netherlands) was added into Hoagland nutrient solution. Root surface area was analyzed with the ImageJ software.

[7] = tested on: Striga hermonthica; experiment: Striga hermonthica infection of rice in pots; settings: 5 μM, rice cv IAC-165 in pots with Striga infested soil (FIG. 13)
Description: Pots experiment was conducted and slightly adapted from the protocol as described previously About 20 mg (ca 8000) Striga seeds were thoroughly mixed in 1.5 L sand and soil mixture (1:1) and added in 3 L perforated plastic pot containing 0.5 L clean soil in the bottom. The pots were kept in greenhouse-controlled conditions at 35° C. under moisture to preconditioned Striga seeds for 10 days. On 11th day, one week old five rice seedlings (cv IAC165) were planted in each pot. After three days of rice planting, each pot was first irrigated with 250 ml phosphorus deficient Hoaglands nutrient solution and after four hours of irrigation 25 ml formulated MZ3, MZ5 and Zaxinone (100 μM) were sprayed. Next day, each pot was again supplied with 250 ml nutrient solution to make the final concentration of each compound to 5 μM and to move the compound to rice seedlings. Pots with and without Striga seeds were kept as the negative and positive control. Each compound was applied twice in a week up to four weeks. The rice plants were grown under normal growth condition (30° C., 70% RH) for eight weeks. The number of emerged Striga plants in each pot were counted.

[8] = roots and root exudates, Pi-starved WT rice, 6 hours

Compound: CC(=O)c1cccc(-c2cccc(-c3cccc(-c4cccc(-c5ccc(O)cc5)c4)c3)c2)c1 [MZ6]
SL level of the root exudate [1]: did not show significant activity

transcript levels of SL biosynthesis enzymes D27, CCD7, CCD8 and CO [2]: downregulating; also recorded: reduced
conversion into the methoxy mimic (MZ3 or MZ5) in rice plants [3]: not detected
Compound: CC(=O)/C=C/c1cccc(Oc2ccc(O)cc2)c1 [MZ2, (E)-4-(3-(4-hydroxyphenoxy)phenyl)but-3-en-2-one]
SL level / release in root exudates (4-DO, Oro) [1]: significant decrease
SL level of the root exudate [1]: did not affect

transcript levels of SL biosynthesis enzymes D27, CCD7, CCD8 and CO [2]: downregulating; also recorded: reduced
conversion into the methoxy mimic (MZ3 or MZ5) in rice plants [3]: not detected
Compound: CC(=O)c1cccc(-c2cccc(-c3ccc(O)cc3)c2)c1 [MZ4, 1-(4″-hydroxy-[1,1′:3′,1″-terphenyl]-3-yl)ethan-1-one]
effect on Striga seed germination ([4]; exudates of rice plants treated at 5 μM, Pi starvation): did not suppress
SL level / release in root exudates (4-DO, Oro) [1]: tendency to reduce
SL level of the root exudate [1]: did not affect

Compound: CC1=C[C@H](O/C=C2/C(=O)O[C@@H]3c4ccccc4C[C@H]23)OC1=O [GR24, reference compound]
spore germination rate ([5]; GR24 10 nM): highest

Compound: CC(=O)/C=C/c1cccc(-c2ccc(O)cc2)c1 [MZ1]
SL level of the root exudate [1]: did not show significant activity

transcript levels of SL biosynthesis enzymes D27, CCD7, CCD8 and CO [2]: pronounced decrease
presence in shoots of rice plants fed through roots [3]: detected
Compound: COc1ccc(-c2cccc(-c3cccc(C(C)=O)c3)c2)cc1 [MZ5]
decrease of Striga seed germination rate [4]: ~46%
CCD7 and CO transcript level compared with Zaxinone ([2]; wild-type rice roots, Pi starvation, 6 h (FIGS. 12A-12D)): significantly lower
effect on 4-deoxyorobanchol relative to Zaxinone [1, 8]: significantly stronger
effect on SL levels relative to Zaxinone [1, 8]: reduced SL levels more than zaxinone
SL level of the root exudate [1]: obvious effect
root surface area and root numbers of WT plants compared with zaxinone treatment [6]: increased more
reduction of the number of emerging Striga plants compared to the untreated control [7]: 55%
spore germination rate ([5]; 5 μM and 50 nM, 3 and 7 days): no effect

Compound: CC(=O)c1cccc(-c2cccc(-c3cccc(-c4cccc(-c5cccc(-c6ccc(C)cc6)c5)c4)c3)c2)c1 [MZ7]
SL level of the root exudate [1]: did not show significant activity

Compound: CC(=O)/C=C/C=C(C)/C=C/C1=C(C)CC(O)CC1(C)C (stereo in doubt) [Zaxinone, reference compound]
decrease of Striga seed germination rate [4]: around 29%
reduction of the number of emerging Striga plants compared to the untreated control [7]: 42%
spores germination ([5]; Zaxinone, after 3 and 7 days): did not affect
